Data on one substance can be found in patent publication US20120141435A1, “USE OF OLIVE LEAF EXTRACTS IN A PHARMACEUTICAL COMPOSITION FOR INDUCING ANGIOGENESIS AND VASCULOGENESIS” (SANIDAD Y RESIDENCIAS 21, S.A., priority 2009, published 2012).

For the experiment, the system named is 6 mm excisional wounds on the back of db/db mice. The experiment is described as follows: Excisional wound healing in db/db mice (digital planimetry). Type of experiment: in vivo, mouse. The note with it: topical on days 0, 2, 4, 6, 8, 10e-2, 10e-5, 10e-7 m oleuropein, treated (right) and untreated (left) wound, vs PBS. On the procedure: Female db/db mice (BKS.Cg-m+/+Lepr^db) aged 10 to 12 weeks were used. They were obtained through Charles River Laboratories (Spain), the average weight of the animals upon reception was 35.64 g. Throughout the entire study, the animals were kept in animal houses particularly designed for allowing control of the animals' environment, such as relative humidity (30-70%), temperature (22±2° C.), air pressure, number of renewals and light period ( 12/12 hours of light/darkness). Access to water was “ad libitum” and the diet was a standard dry pellet diet for rats supplied by PanLab (Barcelona, Spain). After the acclimatization period, the mice were randomly distributed into the different study groups. […]
On day 0 of the experiment, two 6 mm excisional wounds were made on the back of every mouse under aseptic conditions and using surgical instruments. […] The wound healing process was tracked and evaluated throughout the experiment (see FIG. 3). […]
In order to track the wound healing, a digital planimetry method was used whereby the area of every wound was quantified. The inter-group differences have been determined by means of a two-way ANOVA statistical analysis followed by a Bonferroni post-hoc analysis. […]

With VEGF, the “wound healing (wound area)” value is reported as “healing effect”.
